From CN1202821A, “用于从面颊释放药物的组合物和方法” (Theratech Inc, priority 1995, dated 1998)
Several values for one entry are separate records, joined by “and”; a condition that tells them apart may be missing. Equal entries are not always repeated.

Experiments:
[1] = Double-blind, placebo-controlled crossover study of buccal GLP-1(7-36) amide bilayer tablet: blood glucose, plasma insulin, plasma glucagon; assay type: in vivo, human; details: 400 μg buccal bilayer tablet, healthy volunteers
[2] = buccal, dose 119 nmol
[3] = Buccal delivery of salmon calcitonin from bilayer tablets in dogs (Table 3); assay type: in vivo, dog; details: individual dogs, 2 tablets
[4] = Dog buccal mucosa model: insulin bilayer tablet, blood glucose; assay type: in vivo; details: mean of 4 dogs, 1 buccal tablet of 0.375 inch, 5 U/kg

CC[C@H](C)[C@H](NC(=O)[C@H](Cc1ccccc1)NC(=O)[C@H](CCC(=O)O)NC(=O)[C@H](CCCCN)NC(=O)[C@H](C)NC(=O)[C@H](C)NC(=O)[C@H](CCC(N)=O)NC(=O)CNC(=O)[C@H](CCC(=O)O)NC(=O)[C@H](CC(C)C)NC(=O)[C@H](Cc1ccc(O)cc1)NC(=O)[C@H](CO)NC(=O)[C@H](CO)NC(=O)[C@@H](NC(=O)[C@H](CC(=O)O)NC(=O)[C@H](CO)NC(=O)[C@@H](NC(=O)[C@H](Cc1ccccc1)NC(=O)[C@@H](NC(=O)CNC(=O)[C@H](CCC(=O)O)NC(=O)[C@H](C)NC(=O)[C@@H](N)Cc1c[nH]cn1)[C@@H](C)O)[C@@H](C)O)C(C)C)C(=O)N[C@@H](C)C(=O)N[C@@H](Cc1c[nH]c2ccccc12)C(=O)N[C@@H](CC(C)C)C(=O)N[C@H](C(=O)N[C@@H](CCCCN)C(=O)NCC(=O)N[C@@H](CCCNC(=N)N)C(N)=O)C(C)C [GLP-1(7-36)酰胺]
hypoglycaemia [1]: 没有导致低血糖症
生物利用度 (bioavailability) ([2]; individual subjects 901-907, listed as GLP-1(η-36)酰胺): 8.04 % and 6.40 % and 10.01 %
生物利用度 (bioavailability), mean ([2]; mean (平均) of subjects): 7.08 %

CC(C)C[C@H](NC(=O)[C@H](CCCCN)NC(=O)CNC(=O)[C@H](CC(C)C)NC(=O)[C@@H](NC(=O)[C@@H]1CSSC[C@H](N)C(=O)N[C@@H](CO)C(=O)N[C@@H](CC(N)=O)C(=O)N[C@@H](CC(C)C)C(=O)N[C@@H](CO)C(=O)N[C@@H]([C@@H](C)O)C(=O)N1)C(C)C)C(=O)N[C@@H](CO)C(=O)N[C@@H](CCC(N)=O)C(=O)N[C@@H](CCC(=O)O)C(=O)N[C@@H](CC(C)C)C(=O)N[C@@H](Cc1c[nH]cn1)C(=O)N[C@@H](CCCCN)C(=O)N[C@@H](CC(C)C)C(=O)N[C@@H](CCC(N)=O)C(=O)N[C@H](C(=O)N[C@@H](Cc1ccc(O)cc1)C(=O)N1CCC[C@H]1C(=O)N[C@@H](CCCNC(=N)N)C(=O)N[C@H](C(=O)N[C@@H](CC(N)=O)C(=O)N[C@H](C(=O)NCC(=O)N[C@@H](CO)C(=O)NCC(=O)N[C@H](C(=O)N1CCC[C@H]1C(N)=O)[C@@H](C)O)[C@@H](C)O)[C@@H](C)O)[C@@H](C)O [鲑鱼降钙素]
ng吸收 (ng absorbed) ([3]; 0.71 cm2): 6,535 ng and 23,379 ng
ng吸收 (ng absorbed) ([3]; 1.27 cm2): 72,958 ng and 16,461 ng and 20,989 ng and 17,614 ng

胰岛素: human insulin in the buccal bilayer tablet of Example 6
control of blood glucose concentration by buccal delivery [4]: 有效的
